Results: paper PMC9981942, “Pharmacokinetics and tissue distribution of Ramulus Mori (Sangzhi) alkaloids in rats and its effects on liver enzyme activity” (Frontiers in Pharmacology, 2023)
“And” between values parts separate entries of the source, which are not always exact repeats. Equal values may be shown once. Read-outs that look alike come from different tables or passages of the source. Values belong to the compound of their own block, whether it stands above or below them.

How the values were obtained:
[1] = Tissue distribution after single oral SZ-A (40 mg/kg) in SD rats, plasma and 12 tissues; format: in vivo; conditions: for CLz / Vz / half-life / Cmax: n=5; for half-life / AUC(0-t) / Tmax / Cmax: rat; for AUC(0-t): n=5, read-out: AUC(0-t); for accumulation in tissues: up to 12 h
Protocol: (§1) Twenty SD rats were randomly classified into four groups corresponding to four-time points (5 and 30 min, 4 and 12 h) (n = 20; 5 animals per time point) that received SZ-A solution (40 mg/kg) via oral administration. After the completion of dose administration, plasma and tissue samples (derived from the heart, liver, spleen, lung, kidney, aortic blood vessels, brown adipose tissue, subcutaneous adipose tissue, abdominal adipose tissue, muscle (thigh skeletal muscle), pancreas, and brain) were collected at predetermined time points. Twenty-eight ICR mice were randomly classified into four groups (n = 7 per group) corresponding to four-time points (5 and 30 min, 4 and 12 h) that received SZ-A solution (20 mg/kg) via oral administration. After the completion of dose administration, tissue samples (derived from the heart, liver, spleen, lung, kidney, aortic blood vessels, brown adipose tissue, abdominal adipose tissue, muscle (thigh skeletal muscle), pancreas, and brain) were collected at predetermined time points.
(§2) Collected tissue samples were washed with normal saline. The surface moisture was removed by blotting gently with filter paper, and the weight was recorded. After adding an appropriate amount of normal saline, these tissue samples were ground into homogenates using a cryogenic grinder (JX-CL, Shanghai Jingxin, Shanghai, China). The obtained homogenates were stored at −80°C until LC-MS/MS analysis.
Primary pharmacokinetic parameters, including Cmax, Tmax, area under the plasma concentration-time curve (AUC), t1/2, clearance rate, and the apparent volume of distribution, were calculated using DAS 3.2.8 (Bio Guider Co., Shanghai, China).

[2] = set-up: method as in Yang et al., 2017; conditions: ref Yang et al., 2017, cited from earlier work; for form excreted: material conservation within 24 h after oral administration of SZ-A; for oral absolute bioavailability / pharmacokinetic profile versus dose: rats; for oral absolute bioavailability: after oral administration of SZ-A; for pharmacokinetic profile versus dose: oral SZ-A 20–500 mg/kg
[3] = Tissue distribution after single oral SZ-A (20 mg/kg) in ICR mice; format: in vivo
Protocol: as §1, §2

[4] = biological target: T1, rat CYP2C11 (Rattus norvegicus, UniProt P08683); test: Inhibition of CYP450s in rat liver microsomes, probe mephenytoin; conditions: RLMs; SZ-A 8.899 μg/mL, DNJ 20 μM, FA 5 μM, DAB 8 μM
T1 sequence (P08683 1-500): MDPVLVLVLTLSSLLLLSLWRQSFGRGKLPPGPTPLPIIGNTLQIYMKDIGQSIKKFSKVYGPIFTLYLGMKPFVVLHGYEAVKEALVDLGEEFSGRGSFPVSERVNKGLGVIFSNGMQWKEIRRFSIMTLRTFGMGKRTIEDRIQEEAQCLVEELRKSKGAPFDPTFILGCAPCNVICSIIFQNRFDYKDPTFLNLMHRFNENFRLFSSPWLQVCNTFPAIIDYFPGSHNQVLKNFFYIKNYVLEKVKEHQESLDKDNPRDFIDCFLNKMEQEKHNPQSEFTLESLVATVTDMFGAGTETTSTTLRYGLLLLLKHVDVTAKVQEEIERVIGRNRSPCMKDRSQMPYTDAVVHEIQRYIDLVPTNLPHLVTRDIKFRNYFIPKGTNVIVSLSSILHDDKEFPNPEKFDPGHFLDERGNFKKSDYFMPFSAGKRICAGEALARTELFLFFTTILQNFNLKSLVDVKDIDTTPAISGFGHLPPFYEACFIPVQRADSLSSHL

[5] = Sprague-Dawley, Brown adipose tissue
[6] = Sprague-Dawley, Brown adipose tissue, n=5, read-out: Tmax
[7] = Sprague-Dawley, Kidney, n=5, read-out: Tmax
[8] = Sprague-Dawley, Liver, n=5, read-out: Tmax
[9] = Sprague-Dawley, Lung, n=5, read-out: Tmax
[10] = Sprague-Dawley, Pancreas, n=5, read-out: Tmax
[11] = Sprague-Dawley, Plasma, n=5, read-out: Tmax
[12] = Sprague-Dawley, muscle (thigh skeletal muscle), Muscle
[13] = Sprague-Dawley, muscle (thigh skeletal muscle), Muscle, n=5, read-out: Tmax
[14] = Abdominal adipose tissue, n=5, read-out: Tmax
[15] = Aortic blood vessels, n=5, read-out: Tmax
[16] = Subcutaneous adipose tissue, n=5, read-out: Tmax
[17] = other tissues (not named), tissues not named separately for that alkaloid, read-out: time of peak concentration in other tissues (converted)

peak time in the brain [1]: 4 h
CLz ([1]; Plasma): 35.7 ± 5.17 mL/min/kg
Vz ([1]; Plasma): 1.59 ± 0.29 L/kg
half-life [1, 5]: 26.4 ± 13.2 min
AUC(0-t) [1, 5]: 3750 ± 995 ng·h/mL
Tmax [1, 6]: 30 min
Cmax ([1]; Sprague-Dawley, Kidney): 68200 ± 12400 ng/mL
half-life ([1]; Sprague-Dawley, Kidney): 148 ± 30.6 min
AUC(0-t) ([1]; Sprague-Dawley, Kidney): 174000 ± 37100 ng·h/mL
Tmax [1, 7]: 30 min
Cmax ([1]; Sprague-Dawley, Liver): 3300 ± 893 ng/mL
half-life ([1]; Sprague-Dawley, Liver): 33 ± 0.6 min
AUC(0-t) ([1]; Sprague-Dawley, Liver): 7560 ± 1840 ng·h/mL
Tmax [1, 8]: 25.2 ± 11.4 min
Cmax ([1]; Sprague-Dawley, Lung): 806 ± 23.5 ng/mL
half-life ([1]; Sprague-Dawley, Lung): 28.2 ± 14.4 min
Tmax [1, 9]: 13.2 ± 14.4 min
Cmax ([1]; Sprague-Dawley, Pancreas): 386 ± 124 ng/mL
half-life ([1]; Sprague-Dawley, Pancreas): 130 ± 205 min
AUC(0-t) ([1]; Sprague-Dawley, Pancreas): 2190 ± 614 ng·h/mL
Tmax [1, 10]: 30 min
Cmax ([1]; Sprague-Dawley, Plasma): 5830 ± 843 ng/mL
half-life ([1]; Sprague-Dawley, Plasma): 31.2 ± 1.2 min
AUC(0-t) ([1]; Sprague-Dawley, Plasma): 13700 ± 1970 ng·h/mL
Tmax [1, 11]: 30 min
Cmax [1, 12]: 725 ± 279 ng/mL
half-life [1, 12]: 45.6 ± 18 min
AUC(0-t) [1, 12]: 2640 ± 544 ng·h/mL
Tmax [1, 13]: 19.8 ± 13.8 min
Cmax ([1]; Abdominal adipose tissue): 1270 ± 428 ng/mL
half-life ([1]; Abdominal adipose tissue): 102 ± 135 min
AUC(0-t) ([1]; Abdominal adipose tissue): 3730 ± 1010 ng·h/mL
Tmax [1, 14]: 25.2 ± 11.4 min
Cmax ([1]; Aortic blood vessels): 4360 ± 2870 ng/mL
half-life ([1]; Aortic blood vessels): 36 ± 6.6 min
AUC(0-t) ([1]; Aortic blood vessels): 6230 ± 1790 ng·h/mL
Tmax [1, 15]: 4.8 min
Cmax ([1]; Brain): 242 ± 50.3 ng/mL
half-life ([1]; Brain): 482 ± 430 min
AUC(0-t) ([1]; Brain): 2060 ± 562 ng·h/mL
Tmax ([1]; Brain, n=5, read-out: Tmax): 151 ± 122 min
Cmax ([1]; Brown adipose tissue): 1420 ± 513 ng/mL
Cmax ([1]; Heart): 588 ± 140 ng/mL
half-life ([1]; Heart): 31.8 ± 11.4 min
AUC(0-t) ([1]; Heart): 1340 ± 373 ng·h/mL
Tmax ([1]; Heart, n=5, read-out: Tmax): 10.2 ± 11.4 min
AUC(0-t) ([1]; Lung): 1220 ± 501 ng·h/mL
Cmax ([1]; Spleen): 660 ± 225 ng/mL
half-life ([1]; Spleen): 37.2 ± 1.8 min
AUC(0-t) ([1]; Spleen): 1880 ± 845 ng·h/mL
Tmax ([1]; Spleen, n=5, read-out: Tmax): 30 min
Cmax ([1]; Subcutaneous adipose tissue): 577 ± 163 ng/mL
half-life ([1]; Subcutaneous adipose tissue): 37.8 min
AUC(0-t) ([1]; Subcutaneous adipose tissue): 1210 ± 304 ng·h/mL
Tmax [1, 16]: 30 min
Tmax ([1]; heart, aortic vessels, read-out: time of peak concentration in heart and aortic vessels (converted)): 5 min
Tmax [1, 17]: 30 min
accumulation in tissues [1]: no long-term accumulation
distribution in aortic vessels compared with other tissues [3]: lower than that in other tissues
tissues with the highest concentrations [3]: kidney, followed by the liver
effect on rat CYP2C11 [4]: mild activation effect
Compound: OC[C@H]1NC[C@H](O)[C@@H](O)[C@@H]1O [DNJ, 1-deoxynojirimycin]
tissues with the highest concentrations [1]: kidney, followed by the liver, aortic vessels, and brown adipose tissue
form excreted [2]: mainly excreted in their original forms
oral absolute bioavailability [2]: 72.41% and > 70%
pharmacokinetic profile versus dose [2]: non-linear pharmacokinetics

time of maximum drug concentration in heart, muscle, lung, and aortic vessels [1]: 5 min
CLz ([1]; Plasma): 65.8 ± 15 mL/min/kg
Vz ([1]; Plasma): 4.39 ± 2.04 L/kg
half-life [1, 5]: 139 ± 139 min
AUC(0-t) [1, 5]: 1480 ± 380 ng·h/mL
Tmax [1, 6]: 19.8 ± 13.8 min
Cmax ([1]; Sprague-Dawley, Kidney): 8970 ± 1680 ng/mL
half-life ([1]; Sprague-Dawley, Kidney): 139 ± 72.6 min
AUC(0-t) ([1]; Sprague-Dawley, Kidney): 27000 ± 8880 ng·h/mL
Tmax [1, 7]: 25.2 ± 11.4 min
Cmax ([1]; Sprague-Dawley, Liver): 1130 ± 187 ng/mL
half-life ([1]; Sprague-Dawley, Liver): 36 ± 0.6 min
AUC(0-t) ([1]; Sprague-Dawley, Liver): 2990 ± 1030 ng·h/mL
Tmax [1, 8]: 25.2 ± 11.4 min
Cmax ([1]; Sprague-Dawley, Lung): 248 ± 5.46 ng/mL
half-life ([1]; Sprague-Dawley, Lung): 31.2 ± 15.6 min
Tmax [1, 9]: 13.2 ± 14.4 min
Cmax ([1]; Sprague-Dawley, Pancreas): 96.9 ± 13.9 ng/mL
half-life ([1]; Sprague-Dawley, Pancreas): 42 ± 2.4 min
AUC(0-t) ([1]; Sprague-Dawley, Pancreas): 705 ± 118 ng·h/mL
Tmax [1, 10]: 114 ± 115 min
Cmax ([1]; Sprague-Dawley, Plasma): 692 ± 135 ng/mL
half-life ([1]; Sprague-Dawley, Plasma): 46.8 ± 22.8 min
AUC(0-t) ([1]; Sprague-Dawley, Plasma): 1800 ± 421 ng·h/mL
Tmax [1, 11]: 25.2 ± 11.4 min
Cmax [1, 12]: 175 ± 91.2 ng/mL
half-life [1, 12]: 40.8 ± 2.4 min
AUC(0-t) [1, 12]: 577 ± 298 ng·h/mL
Tmax [1, 13]: 19.8 ± 13.8 min
Cmax ([1]; Abdominal adipose tissue): 221 ± 137 ng/mL
half-life ([1]; Abdominal adipose tissue): 38.4 ± 15 min
AUC(0-t) ([1]; Abdominal adipose tissue): 409 ± 127 ng·h/mL
Tmax [1, 14]: 25.2 ± 11.4 min
Cmax ([1]; Aortic blood vessels): 1090 ± 760 ng/mL
half-life ([1]; Aortic blood vessels): 27 ± 14.4 min
AUC(0-t) ([1]; Aortic blood vessels): 1060 ± 367 ng·h/mL
Tmax [1, 15]: 4.8 min
Cmax ([1]; Brown adipose tissue): 463 ± 161 ng/mL
Cmax ([1]; Heart): 128 ± 33.6 ng/mL
half-life ([1]; Heart): 42.6 ± 0.6 min
AUC(0-t) ([1]; Heart): 382 ± 246 ng·h/mL
Tmax ([1]; Heart, n=5, read-out: Tmax): 10.2 ± 11.4 min
AUC(0-t) ([1]; Lung): 367 ± 136 ng·h/mL
Cmax ([1]; Spleen): 198 ± 77.7 ng/mL
half-life ([1]; Spleen): 42 ± 4.8 min
AUC(0-t) ([1]; Spleen): 491 ± 264 ng·h/mL
Tmax ([1]; Spleen, n=5, read-out: Tmax): 30 min
Cmax ([1]; Subcutaneous adipose tissue): 102 ± 52 ng/mL
half-life ([1]; Subcutaneous adipose tissue): 44.4 ± 1.8 min
AUC(0-t) ([1]; Subcutaneous adipose tissue): 212 ± 95 ng·h/mL
Tmax [1, 16]: 15 ± 13.8 min
Tmax [1, 17]: 30 min
accumulation in tissues [1]: no long-term accumulation
tissues with the highest concentrations [3]: kidney, followed by the liver
effect on rat CYP2C11 [4]: mild activation effect
Compound: OC[C@H]1NCC[C@@H](O)[C@@H]1O [FA, fagomine]
tissues with the highest concentrations [1]: kidney, followed by the liver, aortic vessels, and brown adipose tissue
form excreted [2]: mainly excreted in their original forms
oral absolute bioavailability [2]: 77.50% and > 70%
pharmacokinetic profile versus dose [2]: non-linear pharmacokinetics
